In publication PMC7495458, “Generating Ampicillin-Level Antimicrobial Peptides with Activity-Aware Generative Adversarial Networks” (ACS Omega, 2020):
Values after ≈ are worked out from the molar mass of the structure shown. No end group written: not given here.

Each compound was assayed on E. coli TOP10 (assay: microbe, parasite or virus in culture). Conditions: Escherichia coli; microdilution test, E. coli TOP10 late-log phase, 5 × 10^5 cfu/mL, 150 μL, 2-fold dilutions, 26 h at 37 °C, optical density 600 nm; read-out: MIC.
Type: cell-based
Experimental: The potency of the peptides is evaluated based on MIC against E. coli. MIC is determined as the minimum concentration of an antimicrobial at which the growth of a target microbe is suppressed. […] The high production ratio, 5/6, and the sufficiently low MIC of AMP4 validate PepGAN’s ability to generate industry-level peptides.
The MICs of the peptides were determined using the microdilution test with some modifications. We used E. coli TOP10 (Thermo Scientific, MA, USA) in the late-log phase for this test. The colony forming unit (cfu) of E. coli was determined using optical density at 600 nm. For each peptide, we prepared 11 wells containing 150 μL of 5 × 10^5 cfu/mL of E. coli and the series of concentration of each peptide from 10 to 0.01 μg/mL (2-fold dilution for 10 times). We also prepared one well containing only 150 μL of 5 × 10^5 cfu/mL of E. coli without the peptide. Similarly, we prepared 11 wells for ampicillin in the same well-plate. We incubate the plates for 26 h at 37 °C for the growth of E. coli. To read the optical density for each well, we set the plates in a plate reader (EnSpire 2300, PerkinElmer). After shaking the plate for 10 s at 300 rpm in double-orbital motion (diameter 1 mm), we measured the optical density of each solution (600 nm).

**Q.** For `CC1(C)S[C@@H]2[C@H](NC(=O)[C@H](N)c3ccccc3)C(=O)N2[C@H]1C(=O)O` [ampicillin], which MIC is on record?
**A.** The MIC was 6.25 µg/mL (≈ 17.9 µM).

Same assay, conditions: TOP10, 26 h

**Q.** FLGPIIKTVRAVLCAIKKL-NH2 [AMP6] was tested. Which MIC did it give?
**A.** The MIC was 25 µg/mL.

**Q.** Which MIC does the source give for GLRSSVKTLLRGLLGIIKKF-NH2 [AMP3] here?
**A.** The MIC was >100 µg/mL.

**Q.** With EIEYGNPGVGTDR-NH2 [AMP9NC] as the compound, how does the MIC read?
**A.** Its MIC is >100 µg/mL.

**Q.** For FLPAFKNVISKILKALKKKV-NH2 [AMP5], which MIC is on record?
**A.** The MIC was 12.5 µg/mL.

**Q.** IKALLALPKLAKKIAKKFLK-NH2 [AMP2] was tested. Which MIC did it give?
**A.** Its MIC is 50 µg/mL.

**Q.** With LFTMADPIQSIEKEI-NH2 [AMP7NC] as the compound, how does the MIC read?
**A.** Its MIC is >100 µg/mL.

**Q.** ILPLLKKFGKKFGKKVWKAL-NH2 [AMP1] was tested. Which MIC did it give?
**A.** The MIC was 25 µg/mL.

**Q.** Which MIC does the source give for GLKKLFSKIKIIGSALKNLA-NH2 [AMP4] here?
**A.** Its MIC is 3.1 µg/mL.

**Q.** TLPEWDDRRVVNS-NH2 [AMP10NC] was tested. Which MIC did it give?
**A.** Its MIC is >100 µg/mL.

**Q.** KRFLPSCVRSIQNLDDALPTPEEF-NH2 [AMP8NC] was tested. Which MIC did it give?
**A.** The MIC was >100 µg/mL.
